Values quoted from earlier work, collected in patent US20140275170A1, “TASTE MASKING OF ANESTHETICS AND ANALGESICS” (priority 2013, published 2014).

Conditions: maximum doses of 7 mg/kg (550 mg)

Cc1cccc(C)c1NC(=O)C1CCCCN1C (stereo not shown) [mepivacaine]
Adverse effect at maximum doses: without adverse effect
